In PubChem BioAssay AID1259407 (Chemical Carcinogenesis Research Information System (CCRIS), 2018):
The source made the active and inactive calls. No rule for the calls is given here.

Tested on: CCRIS mutagenicity, Ames/micronucleus/aberration tests
Test: CCRIS mutagenicity studies

Measured: mutagenic call

COc1cc2c(c3oc(=O)c4c(c13)CCC4=O)[C@@H]1C=CO[C@@H]1O2
inactive: Test System: AMES SALMONELLA TYPHIMURIUM, Strain/Indicator: TA98, Metabolic Activation: HAMSTER, LUNG, S-9, Method: MICROSUSPENSION inactive; negative | Test System: AMES SALMONELLA TYPHIMURIUM, Strain/Indicator: TA98, Metabolic Activation: NONE, Method: PREINCUBATION inactive; negative | Test System: AMES SALMONELLA TYPHIMURIUM, Strain/Indicator: TA98, Metabolic Activation: PARENCHYMAL CELL-MEDIATED, Method: PREINCUBATION inactive; negative | Test System: AMES SALMONELLA TYPHIMURIUM, Strain/Indicator: TA98, Metabolic Activation: RAT, LUNG, S-9, Method: MICROSUSPENSION inactive; negative | Test System: AMES SALMONELLA TYPHIMURIUM, Strain/Indicator: TA98, Metabolic Activation: RAT, TRACHEA, S-9, Method: MICROSUSPENSION inactive; negative
active: End Point: IN VITRO MICRONUCLEUS, Test System: AHH-1 CELLS, Metabolic Activation: NONE active; positive | End Point: IN VITRO MICRONUCLEUS, Test System: MCL-5 CELLS, Metabolic Activation: NONE active; positive | Test System: AMES SALMONELLA TYPHIMURIUM, Strain/Indicator: TA98, Metabolic Activation: EPITHELIAL CELL-MEDIATED, AROCLOR 1254, Method: PREINCUBATION active; positive | Test System: AMES SALMONELLA TYPHIMURIUM, Strain/Indicator: TA98, Metabolic Activation: EPITHELIAL CELL-MEDIATED, NADPH, Method: PREINCUBATION active; positive | Test System: AMES SALMONELLA TYPHIMURIUM, Strain/Indicator: TA98, Metabolic Activation: EPITHELIAL CELL-MEDIATED, Method: PREINCUBATION active; positive | Test System: AMES SALMONELLA TYPHIMURIUM, Strain/Indicator: TA98, Metabolic Activation: HAMSTER, LIVER, S-9, Method: MICROSUSPENSION active; positive | Test System: AMES SALMONELLA TYPHIMURIUM, Strain/Indicator: TA98, Metabolic Activation: HAMSTER, TRACHEA, S-9, Method: MICROSUSPENSION active; positive | Test System: AMES SALMONELLA TYPHIMURIUM, Strain/Indicator: TA98, Metabolic Activation: HUMAN LIVER, S-9, Method: STANDARD PLATE active; positive | Test System: AMES SALMONELLA TYPHIMURIUM, Strain/Indicator: TA98, Metabolic Activation: HUMAN, LIVER, S-9, Method: STANDARD PLATE active; positive | Test System: AMES SALMONELLA TYPHIMURIUM, Strain/Indicator: TA98, Metabolic Activation: KUPFFER CELL-MEDIATED, AROCLOR 1254, Method: PREINCUBATION active; positive | Test System: AMES SALMONELLA TYPHIMURIUM, Strain/Indicator: TA98, Metabolic Activation: KUPFFER CELL-MEDIATED, NADPH, Method: PREINCUBATION active; positive | Test System: AMES SALMONELLA TYPHIMURIUM, Strain/Indicator: TA98, Metabolic Activation: KUPFFER CELL-MEDIATED, Method: PREINCUBATION active; positive | Test System: AMES SALMONELLA TYPHIMURIUM, Strain/Indicator: TA98, Metabolic Activation: NONE, Method: MICROSUSPENSION active; positive | Test System: AMES SALMONELLA TYPHIMURIUM, Strain/Indicator: TA98, Metabolic Activation: NONE, Method: STANDARD PLATE active; positive | Test System: AMES SALMONELLA TYPHIMURIUM, Strain/Indicator: TA98, Metabolic Activation: PARENCHYMAL CELL-MEDIATED, AROCLOR 1254, Method: PREINCUBATION active; positive | Test System: AMES SALMONELLA TYPHIMURIUM, Strain/Indicator: TA98, Metabolic Activation: PARENCHYMAL CELL-MEDIATED, NADPH, Method: PREINCUBATION active; positive | Test System: AMES SALMONELLA TYPHIMURIUM, Strain/Indicator: TA98, Metabolic Activation: RABBIT, LIVER, S-9, Method: MICROSUSPENSION active; positive | Test System: AMES SALMONELLA TYPHIMURIUM, Strain/Indicator: TA98, Metabolic Activation: RABBIT, LUNG, S-9, Method: MICROSUSPENSION active; positive | Test System: AMES SALMONELLA TYPHIMURIUM, Strain/Indicator: TA98, Metabolic Activation: RABBIT, TRACHEA, S-9, Method: MICROSUSPENSION active; positive | Test System: AMES SALMONELLA TYPHIMURIUM, Strain/Indicator: TA98, Metabolic Activation: RAT LIVER S-9, DELOR 103, Method: STANDARD PLATE active; positive | Test System: AMES SALMONELLA TYPHIMURIUM, Strain/Indicator: TA98, Metabolic Activation: RAT LIVER S-9, DELOREM 103, Method: STANDARD PLATE active; positive | Test System: AMES SALMONELLA TYPHIMURIUM, Strain/Indicator: TA98, Metabolic Activation: RAT, LIVER, MICROSOMES, PHENOBARBITAL, Method: STANDARD PLATE active; positive | Test System: AMES SALMONELLA TYPHIMURIUM, Strain/Indicator: TA98, Metabolic Activation: RAT, LIVER, S-9, ACRYLAMIDE, Method: STANDARD PLATE active; positive | Test System: AMES SALMONELLA TYPHIMURIUM, Strain/Indicator: TA98, Metabolic Activation: RAT, LIVER, S-9, AROCLOR 1254, Method: PREINCUBATION active; positive | Test System: AMES SALMONELLA TYPHIMURIUM, Strain/Indicator: TA98, Metabolic Activation: RAT, LIVER, S-9, AROCLOR 1254, Method: STANDARD PLATE active; positive | Test System: AMES SALMONELLA TYPHIMURIUM, Strain/Indicator: TA98, Metabolic Activation: RAT, LIVER, S-9, PHENOBARBITAL, Method: STANDARD PLATE active; positive | Test System: AMES SALMONELLA TYPHIMURIUM, Strain/Indicator: TA98, Metabolic Activation: RAT, LIVER, S-9, Method: MICROSUSPENSION active; positive | Test System: AMES SALMONELLA TYPHIMURIUM, Strain/Indicator: TA100, Metabolic Activation: HUMAN LIVER, S-9, Method: STANDARD PLATE active; positive | Test System: AMES SALMONELLA TYPHIMURIUM, Strain/Indicator: TA100, Metabolic Activation: HUMAN, LIVER, S-9, Method: STANDARD PLATE active; positive | Test System: AMES SALMONELLA TYPHIMURIUM, Strain/Indicator: TA100, Metabolic Activation: HUMAN, PLACENTAL MICROSOMES, Method: PREINCUBATION active; positive
